{"source": "patent US20050084839A1", "about": "“Method for selecting oocytes by using a response to LPA stimulation” (Hitachi, Ltd., priority 2003, published 2005)", "test_system": "LPAR expressed endogenously in Xenopus laevis oocytes", "assay": "Current response of oocytes to LPA stimulation (two-electrode voltage clamp)", "assay_type": "cell-based", "conditions": "1 nM LPA; for Response to LPA, Average: average of six cells, −60 mV; for Response to LPA (difference between current value before LPA stimulation and peak current value after): individual cells, membrane potential fixed to −60 mV", "text": "First, an ovary is extracted from a female Xenopus laevis by a conventional method, and oocytes are isolated from the ovary by an enzymic treatment or the like. Oocytes not suitable for experiments are removed by a microscopic observation of their appearances such as size, shape, color and pattern. From the remaining group of oocytes, several cells, preferably 3 to 10 cells, more preferably 4 to 7 cells, and most preferably 6 cells are extracted at random. The membrane potential of the extracted oocytes is fixed to a constant voltage, for example, […] to −40 mV or +20 mV to +60 mV, preferably −60 mV by a known method such as two-electrode voltage clamp method or patch clamp method (See, e.g., Shin pacchikuranpu jikkengijutuhou, ed. Okada Yasunobu, Yoshiokashoten, Joron Ion Chaneru, pp. 1-14). By fixing the membrane potential, it is possible to measure the ionic current passing through channels or transporters of electrically resistant nature.\nTo the oocyte after fixing to a certain potential was added about 1 pM to 10 μM, preferably 100 pM to 100 nM, and most preferably 10 nM of LPA, followed by measurement of current response of the oocyte. An average current response is determined for a group of oocytes measured where the current response to LPA stimulation is the difference between the peak current value before LPA addition and the peak current value after LPA addition, providing the response of GPCR for a group of oocytes containing a brood of oocytes. A group of oocytes having a response of GPCR higher than a certain desirable value or within a certain desirable range are selected. The oocytes belonging to the group of oocytes selected in this way originate from a mother, and therefore, each oocyte has genetically nearly equal response of GPCR and may be considered excellent in response of GPCR.\nOvaries were extracted from mother bodies A, B, and C, and their follicle cells were removed by a conventional method. The oocytes after removal of follicles were selected based on their appearances that seemed suitable for experiments, and groups of oocytes were saved separately for each mother body (batches A, B, and C). From each batch, six oocytes were extracted at random, respectively.\nThe membrane potential of each cell was fixed to −60 mV by the two-electrode voltage clamp method. Each cell was stimulated by 1 nM LPA, and then the current response was measured. The difference between the current value before LPA stimulation and the peak current value after LPA stimulation was determined for each cell and shown in Table 1. There were differences in the responses to LPA among the batches.", "note": "“And” between values parts separate entries of the source, which are not always exact repeats. Equal values may be shown once.", "data": [{"substance": "Lysophosphatidic acid [LPA]", "values": [{"measurement": "Response to LPA, Average", "setting": "Batch A oocytes", "value": 0.8, "unit": "μA"}, {"measurement": "Response to LPA (difference between current value before LPA stimulation and peak current value after)", "setting": "Batch A oocytes", "value": "1.1 μA and 1.5 μA and 0.6 μA (2×) and 0.3 μA and 0.8 μA"}, {"measurement": "Response to LPA, Average", "setting": "Batch B oocytes", "value": 2.0, "unit": "μA"}, {"measurement": "Response to LPA (difference between current value before LPA stimulation and peak current value after)", "setting": "Batch B oocytes", "value": "2.5 μA and 1.8 μA and 2.6 μA and 1.1 μA and 2.3 μA and 1.4 μA"}, {"measurement": "Response to LPA, Average", "setting": "Batch C oocytes", "value": 0.2, "unit": "μA"}, {"measurement": "Response to LPA (difference between current value before LPA stimulation and peak current value after)", "setting": "Batch C oocytes", "value": "0.1 μA (2×) and 0.3 μA and 0.4 μA and 0.0 μA and 0.2 μA"}]}]}
